For 35 compounds, EC50 results are on record in US20120022054A1, “NOVEL SUBSTITUTED ARYL DERIVATIVES, THEIR PROCESS OF PREPARATION AND THEIR THERAPEUTICAL USES AS ANTI-HIV AGENTS” (priority 2008, published 2012).

One assay relates to NL4-3 strain of HIV-1. Briefly: Multiple cycle infection assay of CAp24 antigen production. Format: cell-based. The note with it: Human immunodeficiency virus 1, NL43, SUP-T1, 96 h, multiple cycle infection with NL4-3 virus, SupT1, MT4 or PBMC, MOI 0.01, day 4 and day −6 post-infection, read-out: EC50 for antiviral activity (50% inhibition of CA p24 production).
In assay [1] the test system is Env-deleted NL4-3 vector virus pseudotyped with the VSV g envelope. The experiment in a line: microbe, parasite or virus in culture. Format: cell-based, HIV-1. To be noted: Vesicular stomatitis virus, NL43, SUP-T1, 48 h, read-out: EC50 for antiviral activity (50% inhibition of luciferase activity).

SMILES strings stand for the structures. Where two headings read alike, the source gives them in different places. Bounds are passed on as bounds.

In the case of `COc1ccccc1CN(C)C(=O)CCCCSc1ccc(O)cc1` [Example 12, 5-[(4-Hydroxyphenyl)thio]-N-(2-methoxybenzyl)-N-methylpentanamide], the concentration for a half-maximal effect (EC50) (in the assay with NL4-3 strain of HIV-1 (threshold below 5 μM); in assay [1]) was less than 5 µM throughout.
Turning to `CN(Cc1cc(F)cc2c1OCOC2)C(=O)CCCSc1ccc(F)cc1` [Example 96, N-[(6-fluoro-4H-1,3-benzodioxin-8-yl)methyl]-4-[(4-fluorophenyl)thio]-N-methylbutanamide], the EC50 (in the assay on NL4-3 strain of HIV-1 (threshold below 5 μM); in assay [1]) was less than 5 µM in each case.
For `CCOC(=O)c1cc(F)ccc1SCCCC(=O)N(C)c1cccc(OC)c1` [Example 195, Ethyl 5-fluoro-2-({4-[(3-methoxyphenyl)(methyl)amino]-4-oxobutyl}thio)benzoate], the 50% effective concentration (EC50) in assay [1] was less than 5 µM.
For the compound `COc1ccc(SCCCC(=O)N(C)c2nccc3ccccc23)cc1` [Example 132, N-isoquinolin-1-yl-4-[(4-methoxyphenyl)thio]-N-methylbutanamide], the EC50 with NL4-3 strain of HIV-1 (threshold below 500 nM) is less than 0.5 µM; with NL4-3 strain of HIV-1 (threshold below 5 μM), less than 5 µM.
The like results for `COc1ccc(F)cc1CN(C)C(=O)CCCn1cc(-c2ccc(O)cc2)cn1` [Example 176, N-(5-Fluoro-2-methoxybenzyl)-4-[4-(4-hydroxyphenyl)pyrazol-1-yl]-N-methylbutanamide] were, in that order, less than 0.5 µM and less than 5 µM.
The like results for `COc1ccc(F)cc1CN(C)C(=O)CCCn1cc(-c2ccc(F)cc2C)cn1` [Example 175, N-(5-Fluoro-2-methoxybenzyl)-4-[4-(4-fluoro-2-methylphenyl)pyrazol-1-yl]-N-methylbutanamide] were, in that order, less than 0.5 µM and less than 5 µM.
In the case of `COc1ccc(F)cc1CN(C)C(=O)CCCSc1ccc(F)cc1` [Example 84, N-(5-Fluoro-2-methoxybenzyl)-4-[(4-fluorophenyl)thio]-N-methylbutanamide], the EC50 in the assay with NL4-3 strain of HIV-1 (threshold below 500 nM) was less than 0.5 µM; with NL4-3 strain of HIV-1 (threshold below 5 μM), less than 5 µM.
The like results for `COc1ccc(F)cc1CN(C)C(=O)CCCn1ccc2cc(Cl)ccc21` [Example 107, 4-(5-chloro-1H-indol-1-yl)-N-(5-fluoro-2-methoxybenzyl)-N-methylbutanamide] were, in that order, less than 0.5 µM and less than 5 µM.
Turning to `COc1ccc([S+]([O-])CCCC(=O)N(C)Cc2cc(F)ccc2OC)cc1` (centres unmarked) [Example 104, N-(5-fluoro-2-methoxybenzyl)-4-[(4-methoxyphenyl)sulfinyl]-N-methylbutanamide], the values for the half-maximal effective concentration (EC50) with NL4-3 strain of HIV-1 (threshold below 500 nM) and in the assay with NL4-3 strain of HIV-1 (threshold below 5 μM) were less than 0.5 µM and less than 5 µM, respectively.
The like results for `COc1ccc(F)cc1CN(C)C(=O)CCC[S+]([O-])c1ccc(O)cc1` (centres unmarked) [Example 103, N-(5-fluoro-2-methoxybenzyl)-4-[(4-hydroxyphenyl)sulfinyl]-N-methylbutanamide] were, in that order, less than 0.5 µM and less than 5 µM.
Taken in the same sequence, the figures for `COc1ccc([S+]([O-])CCCC(=O)N(C)Cc2cc(F)ccc2OC(C)C)cc1` (centres unmarked) [Example 118, N-(5-fluoro-2-isopropoxybenzyl)-4-[(4-methoxyphenyl)sulfinyl]-N-methylbutanamide] were less than 0.5 µM and less than 5 µM.
In the case of `CCOC(=O)c1cc(F)ccc1[S+]([O-])CCCC(=O)N1CCc2ccc(OC)cc21` (centres unmarked) [Example 191, Ethyl 5-fluoro-2-((4-(6-methoxy-2,3-dihydro-1H-indol-1-yl)-4-oxobutyl)sulfinyl)benzoate], the half-maximal effective concentration (EC50) with NL4-3 strain of HIV-1 (threshold below 5 μM) was less than 5 µM.
For `CN(C(=O)CCCSc1ccc(F)cc1)c1nccc2ccccc12` [Example 128, 4-[(4-fluorophenyl)thio]-N-isoquinolin-1-yl-N-methylbutanamide], the results for the concentration for a half-maximal effect (EC50) with NL4-3 strain of HIV-1 (threshold below 500 nM) and in the assay with NL4-3 strain of HIV-1 (threshold below 5 μM) were less than 0.5 µM and less than 5 µM, respectively.
The like results for `COc1ccc(Cl)cc1CN(C)C(=O)CCCSc1ccc(OC(C)C)cc1` [Example 113, N-(5-chloro-2-methoxybenzyl)-4-[(4-isopropoxyphenyl)thio]-N-methylbutanamide] were, in that order, less than 0.5 µM and less than 5 µM.
The like results for `COc1ccc(C(=O)CCCC(=O)N(C)Cc2cc(Cl)ccc2OC)cc1` [Example 125, N-(5-chloro-2-methoxybenzyl)-5-(4-methoxyphenyl)-N-methyl-5-oxopentanamide] were, in that order, less than 0.5 µM and less than 5 µM.
With `COc1ccc(F)cc1CN(C)C(=O)CCCn1cc(-c2ccc(F)cc2)cn1` [Example 170, N-(5-Fluoro-2-methoxybenzyl)-4-[4-(4-fluorophenyl)pyrazol-1-yl]-N-methylbutanamide], the EC50 in the assay on NL4-3 strain of HIV-1 (threshold below 500 nM) was less than 0.5 µM; in the assay with NL4-3 strain of HIV-1 (threshold below 5 μM), less than 5 µM.
The like results for `COc1ccc(F)cc1CN(C)C(=O)CCCn1cc(-c2ccncc2)cn1` [Example 178, N-(5-Fluoro-2-methoxybenzyl)-4-(4-pyridin-4-yl-pyrazol-1-yl)-N-methylbutanamide] were, in that order, less than 0.5 µM and less than 5 µM.
For `CN(Cc1ccccc1N1CCNCC1)C(=O)CCCSc1ccc(O)cc1` [Example 162, 4-[(4-Hydroxyphenyl)thio]-N-methyl-N-(2-piperazin-1-ylbenzyl)butanamide], the results for the concentration for a half-maximal effect (EC50) in the assay with NL4-3 strain of HIV-1 (threshold below 500 nM) and in the assay on NL4-3 strain of HIV-1 (threshold below 5 μM) were less than 0.5 µM and less than 5 µM, respectively.
The like results for `COc1ccc(Cl)cc1CN(C)C(=O)CCCn1cc(-c2ccc(F)cc2)cn1` [Example 173, N-(5-Chloro-2-methoxybenzyl)-4-[4-(4-fluorophenyl)pyrazol-1-yl]-N-methylbutanamide] were, in that order, less than 0.5 µM and less than 5 µM.
As for `CN(C(=O)CCCSc1ccc(F)cc1)c1cccc2cccnc12` [Example 130, 4-[(4-fluorophenyl)thio]-N-methyl-N-quinolin-8-ylbutanamide], the EC50 in the assay with NL4-3 strain of HIV-1 (threshold below 500 nM) is less than 0.5 µM; in the assay with NL4-3 strain of HIV-1 (threshold below 5 μM), less than 5 µM.
Taken in the same sequence, the figures for `COc1ccc(Cl)cc1CN(C)C(=O)CCCSc1ccc(O)cc1` [Example 70, N-(5-Chloro-2-methoxybenzyl)-4-[(4-hydroxyphenyl)thio]-N-methylbutanamide] were less than 0.5 µM and less than 5 µM.
On to `CC(C)Oc1ccc(F)cc1CN(C)C(=O)CCCSc1ccc(F)cc1` [Example 85, N-(5-Fluoro-2-isopropoxybenzyl)-4-[(4-fluorophenyl)thio]-N-methylbutanamide], for which the EC50 is less than 0.5 µM in the assay with NL4-3 strain of HIV-1 (threshold below 500 nM) and less than 5 µM in the assay with NL4-3 strain of HIV-1 (threshold below 5 μM).
Taken in the same sequence, the figures for `CN(C(=O)CCC[S+]([O-])c1ccc(F)cc1)c1nccc2ccccc12` (centres unmarked) [Example 129, 4-[(4-fluorophenyl)sulfinyl]-N-isoquinolin-1-yl-N-methylbutanamide] were less than 0.5 µM and less than 5 µM.
Taken in the same sequence, the figures for `COc1ccc(F)cc1CN(C)C(=O)CCCSc1ccc(O)cc1` [Example 71, N-(5-Fluoro-2-methoxybenzyl)-4-[(4-hydroxyphenyl)thio]-N-methylbutanamide] were less than 0.5 µM and less than 5 µM.
As to `CN(C(=O)CCCSc1ccc(F)cc1)c1cccc2ccccc12` [Example 169, 4-[(4-Fluorophenyl)thio]-N-methyl-N-1-naphthylbutanamide], the results for the EC50 in the assay with NL4-3 strain of HIV-1 (threshold below 500 nM) and in the assay with NL4-3 strain of HIV-1 (threshold below 5 μM) were less than 0.5 µM and less than 5 µM, respectively.
Taken in the same sequence, the figures for `COc1ccc(-c2cnn(CCCC(=O)N(C)Cc3cc(F)ccc3OC)c2)cc1` [Example 174, N-(5-Fluoro-2-methoxybenzyl)-4-[4-(4-methoxyphenyl)pyrazol-1-yl]-N-methylbutanamide] were less than 0.5 µM and less than 5 µM.
Taken in the same sequence, the figures for `COc1ccc([S+]([O-])CCCC(=O)N(C)Cc2cc(Cl)ccc2OC)cc1` (centres unmarked) [Example 116, N-(5-chloro-2-methoxybenzyl)-4-[(4-methoxyphenyl)sulfinyl]-N-methylbutanamide] were less than 0.5 µM and less than 5 µM.
Taken in the same sequence, the figures for `COc1ccc(F)cc1CN(C)C(=O)CCCn1ccc2cc(F)ccc21` [Example 106, 4-(5-fluoro-1H-indol-1-yl)-N-(5-fluoro-2-methoxybenzyl)-N-methylbutanamide] were less than 0.5 µM and less than 5 µM.
Consider `CN(C(=O)CCCn1ccc2cc(F)ccc21)c1cccc2ccccc12` [Example 123, 4-(5-fluoro-1H-indol-1-yl)-N-methyl-N-1-naphthylbutanamide], for which the values for the EC50 in the assay on NL4-3 strain of HIV-1 (threshold below 500 nM) and in the assay with NL4-3 strain of HIV-1 (threshold below 5 μM) were less than 0.5 µM and less than 5 µM, respectively.
Consider `COc1ccc(F)cc1CN(C)C(=O)CCCn1ccc2cc(Br)ccc21` [Example 108, 4-(5-bromo-1H-indol-1-yl)-N-(5-fluoro-2-methoxybenzyl)-N-methylbutanamide], for which the concentration giving a half-maximal response (EC50) was less than 0.5 µM with NL4-3 strain of HIV-1 (threshold below 500 nM) and less than 5 µM with NL4-3 strain of HIV-1 (threshold below 5 μM).
The like results for `COc1ccc(C)cc1CN(C)C(=O)CCCn1ccc2cc(F)ccc21` [Example 120, 4-(5-fluoro-1H-indol-1-yl)-N-(2-methoxy-5-methylbenzyl)-N-methylbutanamide] were, in that order, less than 0.5 µM and less than 5 µM.
On to `COc1ccc(F)cc1CN(C)C(=O)CCCn1cc(-c2ccc(F)cc2)c(C)n1` [Example 171, N-(5-Fluoro-2-methoxybenzyl)-4-[4-(4-fluorophenyl)-3-methylpyrazol-1-yl]-N-methylbutanamide], for which the concentration giving a half-maximal response (EC50) was less than 0.5 µM in the assay with NL4-3 strain of HIV-1 (threshold below 500 nM) and less than 5 µM in the assay with NL4-3 strain of HIV-1 (threshold below 5 μM).
Take `COc1ccc(F)cc1CN(C)C(=O)CCCSc1ccc(Br)cc1` [Example 145, 4-[(4-Bromophenyl)thio]-N-(5-fluoro-2-methoxybenzyl)-N-methylbutanamide]: the concentration for a half-maximal effect (EC50) in the assay with NL4-3 strain of HIV-1 (threshold below 500 nM) was less than 0.5 µM; with NL4-3 strain of HIV-1 (threshold below 5 μM) it was less than 5 µM.
The like results for `COc1ccc(F)cc1CN(C)C(=O)CCCn1cc(-c2ccc(C#N)cc2)cn1` [Example 177, N-(5-Fluoro-2-methoxybenzyl)-4-[4-(4-cyanophenyl)pyrazol-1-yl]-N-methylbutanamide] were, in that order, less than 0.5 µM and less than 5 µM.
The like results for `COc1ccc(-c2cnc(CCCC(=O)N(C)Cc3cc(F)ccc3OC)o2)cc1` [Example 180, N-(5-Fluoro-2-methoxybenzyl)-4-[5-(4-methoxyphenyl)oxazol-2-yl]-N-methylbutanamide] were, in that order, less than 0.5 µM and less than 5 µM.
